Measurements: article PMC10232738, “Five blueberry anthocyanins and their antioxidant, hypoglycemic, and hypolipidemic effects in vitro” (Frontiers in Nutrition, 2023)
Marks after values point to notes of the source that are not given here.

How the values were obtained:
[1] = Oxygen radical absorbance capacity (ORAC) assay; conditions: Trolox equivalents, pH 7.4, mean ± SD (n = 3)
Protocol: The oxygen radical absorbance capacity (ORAC) assay was performed according to the reported method with slight modifications ([11]). The assay was carried out in black-walled 96-well plates. Tested compounds were dissolved in 75 mM phosphate buffer (pH 7.4). […] A blank sample containing 20 μl of phosphate buffer in the reaction mix was prepared and measured. The area under the curve (AUC) was calculated for each sample by integrating the relative fluorescence curve. The net AUC of the sample was calculated by subtracting the AUC of the blank. The regression equation between net AUC and series concentration of Trolox was determined to establish a standard curve, and ORAC values were expressed as μmol Trolox equivalents/μmol samples using the standard curve established previously. All samples were analyzed in triplicate.

[2] = ABTS radical cation scavenging assay; conditions: 6 min, 734 nm, mean ± SD (n = 3)
Protocol: The ABTS assay was performed as the reported method ([10]). Briefly, ABTS^+ radical cation was prepared by mixing a 7 mM aqueous stock solution of ABTS^+ and 2.6 mM potassium peroxydisulfate. The reaction mixture was stored in the dark at room temperature for 12 h prior to use. […] Then, 50 μl of the test solution was added to 200 μl of the ABTS^+ radical cation solution. […] A blank sample containing ABTS^+ solution was measured.

[3] = system: HepG2 cells; test: Intracellular total cholesterol (TC) in HG-OA stimulated HepG2 cells; assay type: cell-based, Human; conditions: 12 h, HG-OA treated HepG2, vs model group
Protocol: (§1) HepG2 cells were starved in DMEM with 2% FBS for 9 h. To establish an in vitro model of diabesity, cells were stimulated with high glucose (36 mM glucose) and 0.25 mM OA for 12 h according to our previous study ([14]). Then, BB1-BB5 (50 and 100 μM) and Met (100 μM) were added for another 12 h. OA or BB1-BB5 was dissolved in DMSO and added to HepG2 cells in DMEM, and the final DMSO concentration received by the cells was 0.1% (v/v).
After the model was established, HepG2 cells were treated with BB1–BB5 (50 and 100 μM in low and high doses, respectively) in 6-well plates for 12 h. The culture solution was discarded, and 200 μl of RIPA lysis buffer was added after three washes with PBS and placed on a shaker for 10 min. The cell contents were homogenized and centrifuged (4°C, 10,000 rpm) to extract the supernatant. The TC and TG level in HepG2 cells were tested using the commercial kit by glycerol phosphate oxidase (GPO)-peroxidase (PAP) method based on several enzyme-driven reactions. The end product, hydrogen peroxide, which can be oxidatively coupled with 4-aminoantipyrine and phenol in the presence of peroxidase to yield a chromogen, was measured at 500 nm ([16]). In total, eight replicates were set for each sample.

[4] = DPPH radical scavenging assay; conditions: 30 min, 517 nm, mean ± SD (n = 3)
Protocol: DPPH assay was determined according to the reported method ([10]). The tested compounds were dissolved in ethanol and diluted to a series of concentrations to be used as test solutions. A total of 100 μl 0.16 mmol/L DPPH in methanol (5 mg/100 ml) was mixed with 100 μl of the test solution. […] A blank sample containing 100 μl of methanol in the DPPH solution was measured. The same procedure was followed for the positive control, ascorbic acid. All samples were analyzed in triplicate at five different concentrations around the EC50 values.

[5] = target: α-glucosidase; test: α-glucosidase inhibitory activity assay (p-NPG substrate); assay type: biochemical, Saccharomyces cerevisiae; conditions: pH 6.9, 37°C, mean ± SD (n = 3)
Text: Acetonitrile, methanol, and formic acid (HPLC grade) were obtained from Tedia Co. Inc. (Fairfield, OH, USA). Ethanol and phosphoric acid were purchased from Sinopharm Chemical Reagent Co. Ltd. (Shanghai, China). Folin-Ciocalteu's phenol reagent, 2,2-diphenyl-1-picrylhydrazyl (DPPH), 2,2′-azinobis-3-ethylbenzothiazoline-6-sulfonic acid (ABTS), α-glucosidase (from Saccharomyces cerevisiae), 4-nitrophenyl-α-D-glucose (p-NPG), and 6-hydroxy-2,5,7,8-tetramethylchroman-2-carboxylic acid (Trolox) were obtained from Sigma-Aldrich (St. Louis, MO, USA). Sodium fluorescein, 2,2′-azobis-2-amidino-propane (AAPH), metformin (Met), oleic acid (OA), and 2-[N-(7-Nitrobenz-2-oxa-1,3-diazol-4-yl)amino]-2-deoxy-D-glucose (2-NDBG) were obtained from Aladdin (Shanghai, China). The assay kits of triglycerides (TG), total cholesterol (TC), and oil-red-O staining were obtained from Jiancheng Bioengineering Institute (Nanjing, China). The BCA assay kit was obtained from Biosharp (Hefei, China). Dulbecco's modified Eagle's medium (DMEM), penicillin-streptomycin, and fetal bovine serum (FBS) were purchased from Invitrogen-Gibco (Grand Island, NY). The chemicals and reagents used in this study were all of pure analytical grade.
The α-glucosidase inhibitory activity was determined as previous methods with slight modifications ([12]). In short, the diluted sample working solution (1 μl) was added to 3 μl of α-glucosidase (0.5 U/ml in 0.1 M sodium phosphate buffer, pH 6.9) and 156 μl of 0.1 M sodium phosphate buffer (pH 6.9). Then, the mixture was incubated at 37°C for 20 min, and 40 μl of 1.5 mM p-NPG (dissolved in 100 mM sodium phosphate buffer, pH 6.9) was added and incubated for 20 min. Absorbance was measured by a microplate reader (Molecular Device, Sunnyvale, CA, USA). A complete reaction mixture without a sample was used as the control. Three parallel operations were performed. All the samples were analyzed in triplicate at five different concentrations around the IC50 values.

[6] = system: HepG2 cells; test: 2-NBDG glucose uptake in HG-OA stimulated HepG2 cells; assay type: cell-based, Human; conditions: 12 h, HG-OA (36 mM glucose, 0.25 mM OA) treated HepG2, p < 0.001 vs model
Protocol: as §1
After the model was established, HepG2 cells were treated with BB1-BB5 (50 and 100 μM in low and high doses, respectively) for 12 h. 2-NBDG, a fluorescent deoxyglucose, was added to measure glucose uptake ([15]). The culture solution was discarded, and 2-NBDG (100 μM, diluted in DMEM without serum) was added and incubated again for 40 min. […] In total, eight parallels were set up for each sample.

SMILES	EC50 [2]	EC50 [4]	IC50 [5]	ORAC [1]	Intracellular TC levels ([3]; 100 μM)	Glucose uptake capacity (2-NBDG fluorescence) ([6]; 50 μM)	Glucose uptake capacity (2-NBDG fluorescence) ([6]; 100 μM)	Intracellular TC levels ([3]; 50 μM)
COc1cc(-c2[o+]c3cc(O)cc(O)c3cc2OC2OC(CO)C(O)C(O)C2O)cc(OC)c1O (centres unmarked) [BB5, malvidin-3-O-galactoside]	14.3 ± 1 µM	38.8 ± 3.33 µM	185 ± 10.9 µM	11.89 ± 0.13^b μmol Trolox/μmol	noticeably reduced	significant increase	significant increase	
O=C1O[C@H]([C@@H](O)CO)C(O)=C1O [ascorbic acid, reference compound]	44.5 ± 0.55 µM	112 ± 15.3 µM						
OCC1OC(Oc2cc3c(O)cc(O)cc3[o+]c2-c2cc(O)c(O)c(O)c2)C(O)C(O)C1O (centres unmarked) [BB1, delphinidin-3-O-galactoside]	19 ± 0.2 µM	39.91 ± 0.24 µM	68.3 ± 12.4 µM	13.23 ± 0.03^a μmol Trolox/μmol				

Now from value to molecule, other results behind:

EC50 [2]	EC50 [4]	IC50 [5]	SMILES	ORAC [1]	Intracellular TC levels ([3]; 100 μM)	Glucose uptake capacity (2-NBDG fluorescence) ([6]; 50 μM)	Glucose uptake capacity (2-NBDG fluorescence) ([6]; 100 μM)	Intracellular TC levels ([3]; 50 μM)
24.2 ± 1.88 µM	63.2 ± 2 µM	68.5 ± 20.9 µM	COc1cc(-c2[o+]c3cc(O)cc(O)c3cc2OC2OC(CO)C(O)C(O)C2O)cc(O)c1O (centres unmarked) [BB3, petunidin-3-O-galactoside]	11.31 ± 0.22^c μmol Trolox/μmol	noticeably reduced	significant increase	significant increase	
39.3 ± 1.55 µM	62.11 ± 0.27 µM	218 ± 22.7 µM	COc1cc(-c2[o+]c3cc(O)cc(O)c3cc2O[C@@H]2O[C@H](CO)[C@@H](O)[C@H](O)[C@H]2O)cc(O)c1O [BB4, petunidin-3-O-glucoside]	11.02 ± 0.16^c μmol Trolox/μmol	noticeably reduced		significant increase	noticeably reduced
20.7 ± 0.67 µM	61.4 ± 2.29 µM	240 ± 9.2 µM	OC[C@H]1O[C@@H](Oc2cc3c(O)cc(O)cc3[o+]c2-c2cc(O)c(O)c(O)c2)[C@H](O)[C@@H](O)[C@@H]1O [BB2, delphinidin-3-O-glucoside]	9.44 ± 0.12^d μmol Trolox/μmol			significant increase	
